The values that follow come from ChEMBL document CHEMBL5338706, “Discovery of a potent and selective proteolysis targeting chimera (PROTAC) degrader of NSD3 histone methyltransferase” (Eur J Med Chem, 2022).

The target in assay [1] is T1, Histone-lysine N-methyltransferase NSD3 (Homo sapiens) (UniProt Q9BZ95).
T1 sequence (whole entry): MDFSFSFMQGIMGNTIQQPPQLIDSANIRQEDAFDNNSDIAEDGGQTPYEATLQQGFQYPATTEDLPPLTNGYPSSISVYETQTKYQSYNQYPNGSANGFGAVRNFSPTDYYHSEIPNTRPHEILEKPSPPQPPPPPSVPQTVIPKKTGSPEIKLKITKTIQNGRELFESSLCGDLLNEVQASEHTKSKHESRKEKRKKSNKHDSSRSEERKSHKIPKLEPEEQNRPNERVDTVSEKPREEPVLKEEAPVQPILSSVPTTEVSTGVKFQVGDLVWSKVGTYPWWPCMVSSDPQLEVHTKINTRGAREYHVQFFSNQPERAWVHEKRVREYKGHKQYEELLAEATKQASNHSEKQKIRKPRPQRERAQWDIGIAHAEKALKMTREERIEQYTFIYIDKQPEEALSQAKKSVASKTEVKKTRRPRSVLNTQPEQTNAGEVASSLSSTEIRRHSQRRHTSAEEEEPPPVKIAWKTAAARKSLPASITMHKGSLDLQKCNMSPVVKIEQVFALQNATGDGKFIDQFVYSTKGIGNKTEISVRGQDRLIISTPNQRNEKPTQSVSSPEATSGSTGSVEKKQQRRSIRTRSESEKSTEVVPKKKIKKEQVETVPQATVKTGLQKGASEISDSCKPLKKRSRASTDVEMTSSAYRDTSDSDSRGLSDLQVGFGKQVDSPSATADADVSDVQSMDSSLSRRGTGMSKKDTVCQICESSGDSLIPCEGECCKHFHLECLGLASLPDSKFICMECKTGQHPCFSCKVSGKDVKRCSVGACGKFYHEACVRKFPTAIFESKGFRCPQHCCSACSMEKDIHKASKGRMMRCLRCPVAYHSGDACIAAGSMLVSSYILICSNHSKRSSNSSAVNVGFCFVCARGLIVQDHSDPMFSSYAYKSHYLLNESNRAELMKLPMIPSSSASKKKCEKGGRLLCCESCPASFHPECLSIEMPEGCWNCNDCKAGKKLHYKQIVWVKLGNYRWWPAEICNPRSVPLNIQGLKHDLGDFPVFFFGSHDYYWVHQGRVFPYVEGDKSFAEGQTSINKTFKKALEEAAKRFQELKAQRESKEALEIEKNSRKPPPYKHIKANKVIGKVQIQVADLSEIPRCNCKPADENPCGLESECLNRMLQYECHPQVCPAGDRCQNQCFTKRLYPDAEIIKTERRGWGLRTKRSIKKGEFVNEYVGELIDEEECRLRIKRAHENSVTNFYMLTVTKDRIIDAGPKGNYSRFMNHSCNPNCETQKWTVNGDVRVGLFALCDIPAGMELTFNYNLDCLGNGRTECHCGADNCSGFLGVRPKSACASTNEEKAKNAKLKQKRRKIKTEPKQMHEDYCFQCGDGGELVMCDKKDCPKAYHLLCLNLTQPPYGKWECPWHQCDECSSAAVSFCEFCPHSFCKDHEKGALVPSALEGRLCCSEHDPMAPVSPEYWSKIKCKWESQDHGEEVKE
The assay can be described thus: Induction of NSD3 degradation in human NCI-H1703 cells at 5 uM incubated for 72 hrs by Western blot analysis. The class given is cell-based.

Assay [2] has as its target T1, Histone-lysine N-methyltransferase NSD3 (Homo sapiens). The assay can be described thus: Induction of NSD3 degradation in human NCI-H1703 cells at 5 uM measured after 48 hrs by Western blot analysis relative to control. The class given is cell-based. A general note: In western blotting, separated proteins are transferred to a membrane and probed.
In assay [3] the target is T2, Histone-lysine N-methyltransferase NSD3 (Homo sapiens, UniProt Q9BZ95).
T2 sequence (Q9BZ95 whole entry): T1 sequence (whole entry)
The assay can be described thus: Induction of NSD3 degradation in human A549 cells measured after 72 hrs by Western blot analysis. It counts as cell-based.

Assay [4] addresses T1, Histone-lysine N-methyltransferase NSD3 (Homo sapiens). The assay can be described thus: Induction of NSD3 degradation in human NCI-H1703 cells measured upto 72 hrs by Western blot analysis. It counts as cell-based. Particulars: dose 0.001-10 µM.
Assay [5] shares this target. The assay can be described thus: Induction of NSD3 degradation in human NCI-H1703 cells at […] incubated for 48 hrs in presence of MG132 by Western blot analysis. The class given is cell-based. Particulars: dose 7.5 µM.
Assay [6] has as its system NCI-H1703. The assay is described as follows: Downregulation of ALDH1A1 in human NCI-H1703 cells at […] measured after 72 hrs by RNA sequencing assay. The class given is functional, cell-based. The following applies: dose 7.5 µM.
For assay [7], the target named is T1, Histone-lysine N-methyltransferase NSD3 (Homo sapiens). The assay can be described thus: Induction of NSD3 degradation in human A549 cells assessed as reduction in H3K36me3 methylation incubated for 72 hrs by Western blot analysis. It counts as cell-based. Particulars: dose 5-10 µM.
Assay [8] deals with NCI-H1703. The assay is described as follows: Induction of apoptosis in human NCI-H1703 cells assessed as early apoptotic cells at 3 uM measured after 72 hrs by PI/Annexin-V staining based flow cytometry analysis (reference value: 1.47% ). It counts as functional.
The subject of assay [9] is NCI-H1703. The assay is described as follows: Induction of apoptosis in human NCI-H1703 cells assessed as early apoptotic cells at 5 uM measured after 72 hrs by PI/Annexin-V staining based flow cytometry analysis (reference value: 1.47% ). It counts as functional.
Assay [10] relates to NCI-H1703. The assay can be described thus: Induction of apoptosis in human NCI-H1703 cells assessed as late apoptotic cells at […] measured after 72 hrs by PI/Annexin-V staining based flow cytometry analysis (reference value: 3.00% ). It counts as functional. Particulars: dose 7.5 µM.
The test system of assay [11] is NCI-H1703. The assay is described as follows: Induction of apoptosis in human NCI-H1703 cells assessed as necrotic cells at 5 uM measured after 72 hrs by PI/Annexin-V staining based flow cytometry analysis (reference value: 2.80% ). It counts as functional. For orientation: Flow cytometry measures light scatter and fluorescence of single cells or particles in a stream.

Assay [12] in a line: Downregulation of c-Myc level in human NCI-H1703 cells at 3 uM by measuring fold change by Western blot analysis relative to control. The class given is functional.
Assay [13] in a line: Downregulation of NSD3 level in human NCI-H520 cells at […] by measuring fold change by Western blot analysis relative to control. It counts as functional. Particulars: dose 7.5 µM.
Assay [14] in a line: Downregulation of CDC25A level in human NCI-H520 cells at 3 uM by measuring fold change by Western blot analysis relative to control. It counts as functional.
The nature of assay [15]: Downregulation of CDC25A level in human NCI-H520 cells at […] by measuring fold change by Western blot analysis relative to control. The class given is functional. The following applies: dose 7.5 µM.
Assay [16] can be described thus: Downregulation of Cyclin D1 level in human NCI-H520 cells at […] by measuring fold change by Western blot analysis relative to control. It counts as functional. Particulars: dose 7.5 µM.
Assay [17] in a line: Downregulation of c-Myc level in human NCI-H520 cells at 3 uM by measuring fold change by Western blot analysis relative to control. The class given is functional.
The subject of assay [18] is NCI-H1703. The assay can be described thus: Induction of apoptosis in human NCI-H1703 cells assessed as decrease in NSD3 protein expression at […] by measuring fold change by Western blot analysis relative to control. It counts as functional. Particulars: dose 7.5 µM.
For assay [19], the system named is NCI-H1703. The assay is described as follows: Induction of apoptosis in human NCI-H1703 cells assessed as decrease in NSD3 protein expression at 10 uM by measuring fold change by Western blot analysis relative to control. It counts as functional.
Assay [20] has as its system NCI-H520. The assay is described as follows: Induction of apoptosis in human NCI-H520 cells assessed as decrease in Bcl-XL protein expression at 5 uM by measuring fold change by Western blot analysis relative to control. It counts as functional.
The test system of assay [21] is NCI-H520. The assay can be described thus: Induction of apoptosis in human NCI-H520 cells assessed as decrease in Bcl-XL protein expression at […] by measuring fold change by Western blot analysis relative to control. It counts as functional. Particulars: dose 7.5 µM.

Active and inactive are the calls of the source. The calls are words filed in the database; no cut-off is given here.

As usually defined, the EC50 is the concentration that produces a half-maximal response. A low value points to higher potency in that assay. In [1], `Cc1cc(CNCCCCCCCCCCC(=O)N[C@H](C(=O)N2C[C@H](O)C[C@H]2C(=O)N[C@@H](C)c2ccc(-c3scnc3C)cc2)C(C)(C)C)cc(C)c1-c1ncn(C)c1-c1ccnc2cc(F)ccc12` displayed an NSD3 degradation of 58.9%. Also, the Activity was 60% in assay [2]; “Dose-Dependent Effect” in assay [4]; “Dose-Dependent Effect” in assay [7]; 1.48% in the assay with NCI-H1703 [8]; 7.5% in the assay on NCI-H1703 [9]; 26.6% in the assay with NCI-H1703 [10]. The Activity with NCI-H1703 [11] turned out to be 7.21%. In assay [3], the EC50 was 940 nM. Further, the result in assay [5] was inactive. For the same compound, the outcome in the assay on NCI-H1703 [6] was Active. Besides, the “fold change (FC)” value is given as 0.86 in assay [12]; 0.61 in assay [13]; 0.9 in assay [14]; 0.6 in [15]; 0.62 in [16]; 1.03 in assay [17]. In addition, the “fold change (FC)” value in the assay on NCI-H1703 [18] is 0.73; with NCI-H1703 [19], 0.63; in the assay on NCI-H520 [20], 1.1; with NCI-H520 [21], 0.8.
